The text below walks through data of US20140039803A1, “Method for Rapid Identification of Drug Targets and Drug Mechanisms of Action in Human Cells” (THE ROCKEFELLER UNIVERSITY, priority 2011, published 2014).

The subject of one experiment is HCT-116 cells (parental). Nature of the experiment: Cell proliferation assay (WST1), LD50. The experiment is classed as cell-based, human. (Formazan colour is commonly taken as a measure of viable cells.)
The subject of experiment [1] is BI-2536-resistant clones of HCT-116 cells. Nature of the experiment: Cell proliferation assay (WST1), LD50. It is filed as cell-based, human.
The subject of another experiment is HCT-116 cells. Briefly: Spindle phenotype with BI-2536 treatment. It is filed as cell-based, human.
Experiment [2] relates to BI-2536-resistant clones of HCT-116 cells. Nature of the experiment: Spindle phenotype with BI-2536 treatment. It is filed as cell-based, human.
The next experiment deals with PLK2 (Homo sapiens, UniProt Q9NYY3). Conditions: cited from earlier work.
A further experiment concerns the target PLK3 (Homo sapiens, UniProt Q9H4B4). Conditions: cited from earlier work.
A further experiment relates to related motor proteins. The note with it: in vitro; cited from earlier work.
For experiment [3], the system named is hTERT-RPE1 cells stably expressing GFP-PSMB5 wild type or mutants. Nature of the experiment: Proliferation assay, bortezomib treatment. It is filed as cell-based, human. The note with it: stable expression of GFP-tagged PSMB5 mutants.
Experiment [4] deals with bortezomib-resistant clones of HCT-116 cells. The note with it: for LD50: Table 4, mean ± s.e.m., n = 3.

“And” between values parts separate entries of the source, which are not always exact repeats. Equal entries are not always repeated. Where two headings read alike, the source gives them in different places.

Sequence of PLK2 (Q9NYY3 whole entry, species assumed): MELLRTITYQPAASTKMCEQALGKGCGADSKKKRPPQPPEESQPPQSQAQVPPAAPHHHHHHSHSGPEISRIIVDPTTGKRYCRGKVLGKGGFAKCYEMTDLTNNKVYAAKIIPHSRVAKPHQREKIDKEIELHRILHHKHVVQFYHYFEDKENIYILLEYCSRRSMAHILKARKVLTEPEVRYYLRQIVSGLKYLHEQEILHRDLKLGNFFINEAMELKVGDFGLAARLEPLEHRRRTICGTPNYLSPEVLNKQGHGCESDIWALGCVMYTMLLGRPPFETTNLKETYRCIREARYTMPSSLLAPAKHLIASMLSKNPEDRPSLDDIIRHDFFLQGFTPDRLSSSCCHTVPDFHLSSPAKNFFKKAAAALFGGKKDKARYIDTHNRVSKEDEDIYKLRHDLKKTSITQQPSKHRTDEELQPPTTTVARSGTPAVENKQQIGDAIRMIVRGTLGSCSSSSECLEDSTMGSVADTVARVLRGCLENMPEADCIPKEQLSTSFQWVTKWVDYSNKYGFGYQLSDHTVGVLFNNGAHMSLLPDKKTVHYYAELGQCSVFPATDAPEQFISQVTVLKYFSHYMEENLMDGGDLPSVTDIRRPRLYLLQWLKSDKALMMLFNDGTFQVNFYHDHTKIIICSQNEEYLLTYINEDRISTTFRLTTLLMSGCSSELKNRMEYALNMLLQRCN
Sequence of PLK3 (Q9H4B4 whole entry): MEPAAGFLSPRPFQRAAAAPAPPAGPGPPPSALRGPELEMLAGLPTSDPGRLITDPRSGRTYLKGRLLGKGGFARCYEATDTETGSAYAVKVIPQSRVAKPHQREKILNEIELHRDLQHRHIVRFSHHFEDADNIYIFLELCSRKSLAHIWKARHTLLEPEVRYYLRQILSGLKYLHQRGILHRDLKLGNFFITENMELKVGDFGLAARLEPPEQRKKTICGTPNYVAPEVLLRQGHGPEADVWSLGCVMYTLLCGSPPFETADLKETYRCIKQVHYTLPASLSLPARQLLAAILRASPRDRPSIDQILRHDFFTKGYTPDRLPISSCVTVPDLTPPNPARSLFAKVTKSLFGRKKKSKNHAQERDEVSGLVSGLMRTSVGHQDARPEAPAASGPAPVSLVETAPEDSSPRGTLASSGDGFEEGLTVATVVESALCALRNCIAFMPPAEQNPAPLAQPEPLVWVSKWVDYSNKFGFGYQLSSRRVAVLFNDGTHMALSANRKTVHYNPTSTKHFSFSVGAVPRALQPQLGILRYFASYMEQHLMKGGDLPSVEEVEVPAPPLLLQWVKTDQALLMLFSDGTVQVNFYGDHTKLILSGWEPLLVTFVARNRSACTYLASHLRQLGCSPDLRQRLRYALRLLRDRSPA

Take `CC[C@@H]1C(=O)N(C)c2cnc(Nc3ccc(C(=O)NC4CCN(C)CC4)cc3OC)nc2N1C1CCCC1` [BI-2536]: the LD50 with HCT-116 cells (parental) (Example 1, Table 1, parental HCT-116, mean ± s.d.) is 3.9 nM and 3.9 ± 1.0 nM; with HCT-116 cells (parental) (Example 2, Table 3, parental HCT-116, n = 3, mean ± s.d.), 3.9 nM and 3.9 ± 2.8 nM; in experiment [1] (Example 1, Table 1, clone A, mean ± s.d.) it was 24.7 ± 5.9 nM; in experiment [1] (Example 1, Table 1, clone B, mean ± s.d.) it was 22.9 ± 5.3 nM; in experiment [1] (Example 1, Table 1, clone C, mean ± s.d.) it was 12.6 ± 2.6 nM; in experiment [1] (Example 1, Table 1, clone D, mean ± s.d.), 27.6 ± 2.4 nM. Further, the LD50 is on record as 35.9 ± 9.9 nM in experiment [1] (Example 1, Table 1, clone E, mean ± s.d.); 33.4 ± 7.5 nM in experiment [1] (Example 1, Table 1, clone F, mean ± s.d.); 34.9 ± 13.0 nM in experiment [1] (Example 2, Table 3, clone A, n = 3, mean ± s.d.); 33.5 ± 2.6 nM in experiment [1] (Example 2, Table 3, clone B, n = 3, mean ± s.d.); 27.2 ± 8.6 nM in experiment [1] (Example 2, Table 3, clone C, n = 3, mean ± s.d.); 14.2 ± 7.8 nM in [1] (Example 2, Table 3, clone D, n = 3, mean ± s.d.). Also, the LD50 came out at 21.1 ± 5.7 nM in [1] (Example 2, Table 3, clone E, n = 3, mean ± s.d.) and 27.5 ± 13.3 nM in [1] (Example 2, Table 3, clone F, n = 3, mean ± s.d.). In addition, the normal bipolar spindles in the experiment on HCT-116 cells is on record as 11±3%. This molecule also returned a bipolar spindles in experiment [2] (BI-2536 treatment, drug-resistant clone B) of 46±4%. Further, the “reduction in bipolar spindles associated with BI-2536 treatment” value in experiment [2] (Example 1: clones A, B and C) is “suppressed”. In addition, the activity in vitro entry at PLK2 and on PLK3 was “active” in each case.
In the case of `CC(=O)O[C@H]1C(=O)[C@@]2(C)[C@H]([C@H](OC(=O)c3ccccc3)[C@]3(O)C[C@H](OC(=O)[C@H](O)[C@@H](NC(=O)c4ccccc4)c4ccccc4)C(C)=C1C3(C)C)[C@]1(OC(C)=O)CO[C@@H]1C[C@@H]2O` [taxol], the “sensitivity of clones compared with parental cell line” value is recorded as “less sensitive than the parental cell line” in [1] (Example 1: clones A, B and C); “less sensitive than the parental cell line” in experiment [1] (Example 2: clones D, E and F, 20 nM (FIG. 11)).
For `N[C@@H](CSC(c1ccccc1)(c1ccccc1)c1ccccc1)C(=O)O` [STLC, S-trityl-L-cysteine], the “selectivity over related motor proteins” value in the experiment on related motor proteins is on record as “selective”.
In the case of `CC(C)C[C@H](NC(=O)[C@H](Cc1ccccc1)NC(=O)c1cnccn1)B(O)O` [bortezomib], the LD50 in the experiment with HCT-116 cells (parental) (Example 3, Table 4, parental HCT-116, mean ± s.e.m., n = 3) worked out at 6.3 ± 0.9 nM; with HCT-116 cells (parental) (HCT-116 cells, text of Example 3), 6.3±0.9 nm; in experiment [4] (clone A) it was 19.4 ± 6.7 nM; in experiment [4] (clone B) it was 15.3 ± 6.2 nM; in experiment [4] (clone C) it was 17.8 ± 6.0 nM; in [4] (clone D), 17.2 ± 5.4 nM. In addition, the LD50 in [4] (clone E) was 41.5 ± 9.5 nM. The “effect of expression of PSMB5 M104V or A108T on bortezomib sensitivity” value in [3] is given as “suppressed bortezomib sensitivity”. The “LD50 of resistant clones relative to parental cell line” value in experiment [4] (five clones with reduced bortezomib sensitivity, fold higher) is 2.4-6.5 fold.
For the molecule `c1ccc(C2(c3nc(-c4ccncc4)cs3)CC2)cc1` [PCTP, 4-(2-(1-phenylcyclopropyl)thiazol-4-yl)pyridine], the “selectivity over related motor proteins” value in the experiment on related motor proteins is listed as “inhibit other related motor proteins”.
